Measurements from patent US7816408B2, “Calcium receptor active compounds” (NPS Pharmaceuticals, Inc., priority 2002, dated 2010).

What was measured:
[1] = molecular target: T1, human calcium receptor (Homo sapiens, UniProt P41180); test: Activity on calcium receptors: fluo-3 fluorescence in HEK293 cells transfected with human calcium receptor gene; format: cell-based; settings: HEK293 cells transfected with plasmid pHuPCaR4.0 (human calcium receptor gene), loaded with fluo-3; 1 mM CaCl2, 1 mM MgCl2
T1 construct: expressed in transfected cells; host or cells: HEK293
T1 sequence (P41180 20-1078): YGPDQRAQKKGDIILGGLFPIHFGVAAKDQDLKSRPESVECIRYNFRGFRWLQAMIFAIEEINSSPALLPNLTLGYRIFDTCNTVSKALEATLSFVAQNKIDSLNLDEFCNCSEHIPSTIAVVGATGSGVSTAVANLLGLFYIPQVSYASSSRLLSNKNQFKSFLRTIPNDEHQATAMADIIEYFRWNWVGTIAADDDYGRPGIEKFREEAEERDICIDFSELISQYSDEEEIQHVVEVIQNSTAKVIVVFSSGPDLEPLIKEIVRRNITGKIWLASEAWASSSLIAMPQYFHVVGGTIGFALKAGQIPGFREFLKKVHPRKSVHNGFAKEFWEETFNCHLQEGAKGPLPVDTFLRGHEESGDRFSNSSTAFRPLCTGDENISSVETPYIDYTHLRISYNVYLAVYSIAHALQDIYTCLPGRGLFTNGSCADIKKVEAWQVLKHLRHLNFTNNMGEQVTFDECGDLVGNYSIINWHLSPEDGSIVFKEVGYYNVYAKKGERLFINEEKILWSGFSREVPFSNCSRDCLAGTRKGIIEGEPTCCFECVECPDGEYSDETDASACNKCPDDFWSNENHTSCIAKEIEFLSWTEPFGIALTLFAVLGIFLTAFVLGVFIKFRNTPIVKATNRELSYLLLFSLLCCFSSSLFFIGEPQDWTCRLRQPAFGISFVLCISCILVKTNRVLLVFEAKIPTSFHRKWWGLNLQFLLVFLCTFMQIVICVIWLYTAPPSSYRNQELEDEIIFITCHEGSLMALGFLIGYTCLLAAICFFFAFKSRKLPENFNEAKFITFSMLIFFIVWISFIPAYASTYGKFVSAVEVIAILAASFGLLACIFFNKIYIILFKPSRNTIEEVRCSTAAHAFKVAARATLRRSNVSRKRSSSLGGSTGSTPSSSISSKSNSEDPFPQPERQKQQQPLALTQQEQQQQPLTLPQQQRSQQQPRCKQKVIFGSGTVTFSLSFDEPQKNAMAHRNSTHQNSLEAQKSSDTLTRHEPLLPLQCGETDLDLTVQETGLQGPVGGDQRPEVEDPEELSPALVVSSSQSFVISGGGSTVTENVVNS
Outline: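 HEK293 cells transfected with human calcium receptor plasmid, loaded 1 h at 37 °C with about 5 μM fluo-3/AM. Cells then rinsed into HEPES-buffered HBSS with 1 mM CaCl2 and 1 mM MgCl2. Fluorescence read at 485/540 nm after compound addition.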

[2] = test system: normal male SD rats; test: Plasma Ca^2+ level of rats after single oral administration; format: in vivo; settings: rat, mean of six animals; for Plasma Ca^2+ (mmol/l) 1 hr: 1 hr after single oral dose 30 μmol/kg; for Plasma Ca^2+ (mmol/l) 2 hr: 2 hr after single oral dose 30 μmol/kg; for Plasma Ca^2+ (mmol/l) 4 hr: 4 hr after single oral dose 30 μmol/kg; for Plasma Ca^2+ (mmol/l) 8 hr: 8 hr after single oral dose 30 μmol/kg; for Plasma Ca^2+ (mmol/l) 28 hr (footnote *d, 24 hr column): 28 hr after single oral dose 30 μmol/kg, vehicle 10% cyclodextrin
Outline: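 Normal male SD rats (n=6/group) received a single oral dose of 30 μmol/kg in 10% cyclodextrin or, for some compounds, 1% sodium-CMC; vehicle controls received 2.5 ml/kg. Tail blood was drawn pre-dose and at 30 min and 1, 2, 4, 8 and 24 h for plasma Ca^2+ and serum PTH. PTH was compared with vehicle by Steel's test.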

[3] = vehicle 10% cyclodextrin (** 1% sodium-CMC)

## COc1ccc(CN(Cc2ccc(Cl)c(Cl)c2)C(=O)CCN[C@H](C)c2cccc3ccccc23)cc1 [Compound K-2309, N1-(3,4-dichlorobenzyl)-N1-(4-methoxybenzyl)-3-{[(1R)-1-(1-naphthyl)ethyl]amino}propanamide]
[1]
  EC50: 66 nM
[2]; [3]
  Plasma Ca^2+ (mmol/l) 1 hr: 1.320 mmol/L
  Plasma Ca^2+ (mmol/l) 2 hr: 1.207 mmol/L
  Plasma Ca^2+ (mmol/l) 4 hr: 1.018 mmol/L
  Plasma Ca^2+ (mmol/l) 8 hr: 0.963 mmol/L
[2]
  Plasma Ca^2+ (mmol/l) 28 hr (footnote *d, 24 hr column): 1.332*^d mmol/l

## Cc1ccc(CN(Cc2ccc(OC(F)(F)F)cc2)C(=O)CCN[C@H](C)c2cccc3ccccc23)cc1 [Compound K-2310, N1-(4-methylbenzyl)-N1-[4-(trifluoromethoxy)benzyl]-3-{[(1R)-1-(1-naphthyl)ethyl]amino}propanamide]
[1]
  EC50: 59 nM
[2]; [3]
  Plasma Ca^2+ (mmol/l) 1 hr: 1.342 mmol/L
  Plasma Ca^2+ (mmol/l) 2 hr: 1.188 mmol/L
  Plasma Ca^2+ (mmol/l) 4 hr: 1.008 mmol/L
  Plasma Ca^2+ (mmol/l) 8 hr: 0.943 mmol/L
[2]
  Plasma Ca^2+ (mmol/l) 28 hr (footnote *d, 24 hr column): 1.330*^d mmol/l

## COc1ccc(CN(Cc2ccc(OC(F)(F)F)cc2)C(=O)CCN[C@H](C)c2cccc3ccccc23)cc1 [Compound K-2311]
[1]
  EC50: 53 nM
[2]; 0 hr = before oral administration of 30 μmol/kg, vehicle 10% cyclodextrin (** 1% sodium-CMC)
  Plasma Ca^2+ (mmol/l) 0 hr: 1.447 mmol/L
[2]; [3]
  Plasma Ca^2+ (mmol/l) 1 hr: 1.375 mmol/L
  Plasma Ca^2+ (mmol/l) 2 hr: 1.232 mmol/L
  Plasma Ca^2+ (mmol/l) 4 hr: 1.075 mmol/L
  Plasma Ca^2+ (mmol/l) 8 hr: 1.110 mmol/L
